10 compounds from ChEMBL document CHEMBL4177521, “Therapeutic Potential of Fatty Acid Amide Hydrolase, Monoacylglycerol Lipase, and N-Acylethanolamine Acid Amidase Inhibitors” (J Med Chem, 2017) can be followed below.

A value given as a limit tells only on which side of the number the result lay.

Series [1] in a line: Half life in mouse plasma. It is filed as ADME, cell-free.
The nature of series [2]: Half life in mouse liver microsomes. It is filed as ADME, microsome. (In general: Liver microsomes are a subcellular fraction often used to study metabolism.)
Series [3] is described as follows: Cmax in CD1 mouse plasma at 3 mg/kg, iv. Type of series: ADME, organism-based. On the set-up: dose 3 mg/kg, route intravenous. The following applies: in vivo.
The nature of series [4]: Half life in rat plasma. It is filed as ADME, cell-free.
Series [5] can be described thus: Half life in rat liver microsomes. Type of series: ADME, microsome.
Series [6] can be described thus: Half life in CD1 mouse plasma at 3 mg/kg, iv. It is filed as ADME, organism-based.
Another series concerns the target Cannabinoid receptor 1 (Homo sapiens, UniProt P21554). As to the kind of experiment: Antagonist activity at CB1R (unknown origin). It is filed as functional.
For another series, the target named is T1, Monoglyceride lipase (Homo sapiens, UniProt Q99685).
T1 sequence (Q99685 whole entry): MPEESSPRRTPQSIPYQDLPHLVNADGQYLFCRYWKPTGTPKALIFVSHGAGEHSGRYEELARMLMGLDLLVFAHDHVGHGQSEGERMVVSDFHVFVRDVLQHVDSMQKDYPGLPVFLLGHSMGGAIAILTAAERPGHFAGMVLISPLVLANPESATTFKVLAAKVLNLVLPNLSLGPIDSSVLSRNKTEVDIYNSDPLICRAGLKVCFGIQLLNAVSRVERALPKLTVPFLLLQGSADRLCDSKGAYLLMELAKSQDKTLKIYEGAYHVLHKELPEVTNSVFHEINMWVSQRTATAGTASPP
As to the kind of experiment: Inhibition of human MAGL.

Series [7] has as its target T2, N-acylethanolamine-hydrolyzing acid amidase (Homo sapiens, UniProt Q02083).
T2 sequence (Q02083 whole entry): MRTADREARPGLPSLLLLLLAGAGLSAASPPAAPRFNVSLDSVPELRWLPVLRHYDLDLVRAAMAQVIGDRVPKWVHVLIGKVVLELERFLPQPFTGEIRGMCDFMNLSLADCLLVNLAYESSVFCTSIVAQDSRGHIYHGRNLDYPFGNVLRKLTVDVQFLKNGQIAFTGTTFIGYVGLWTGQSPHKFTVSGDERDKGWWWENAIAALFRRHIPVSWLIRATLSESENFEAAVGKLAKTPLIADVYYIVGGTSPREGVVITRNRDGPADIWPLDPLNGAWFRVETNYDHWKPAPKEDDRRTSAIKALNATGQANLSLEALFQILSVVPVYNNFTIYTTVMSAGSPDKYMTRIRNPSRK
As to the kind of experiment: Time dependent inhibition of recombinant human NAAA expressed in HEK293 cells by liquid scintillation counting method. Type of series: cell-based.

For series [8], the target named is T2, N-acylethanolamine-hydrolyzing acid amidase. Description: Time dependent inhibition of recombinant human NAAA expressed in HEK293 cell membranes using [14C]-PEA as substrate by liquid scintillation counting method.
Series [9] addresses T3, Fatty-acid amide hydrolase 1 (Mus musculus, UniProt O08914).
T3 sequence (O08914 whole entry): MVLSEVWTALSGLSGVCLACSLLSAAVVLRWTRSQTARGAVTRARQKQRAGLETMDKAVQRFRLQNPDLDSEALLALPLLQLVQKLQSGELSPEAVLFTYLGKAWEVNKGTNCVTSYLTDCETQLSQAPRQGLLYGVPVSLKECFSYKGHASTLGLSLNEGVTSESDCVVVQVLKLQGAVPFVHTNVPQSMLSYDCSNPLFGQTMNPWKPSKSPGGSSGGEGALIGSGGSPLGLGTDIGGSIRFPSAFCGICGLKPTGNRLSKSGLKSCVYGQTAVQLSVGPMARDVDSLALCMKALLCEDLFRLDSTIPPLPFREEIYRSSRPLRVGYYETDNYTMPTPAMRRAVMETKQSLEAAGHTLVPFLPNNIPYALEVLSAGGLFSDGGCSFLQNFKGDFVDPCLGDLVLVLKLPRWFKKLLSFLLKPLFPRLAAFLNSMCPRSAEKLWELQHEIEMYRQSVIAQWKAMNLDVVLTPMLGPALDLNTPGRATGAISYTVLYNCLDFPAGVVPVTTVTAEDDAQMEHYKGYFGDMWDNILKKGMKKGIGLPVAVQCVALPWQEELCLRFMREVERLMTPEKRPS
Description: Inhibition of CD1 mouse FAAH.

Series [10] has as its target T4, N-acylethanolamine-hydrolyzing acid amidase (Rattus norvegicus, UniProt Q5KTC7).
T4 sequence (Q5KTC7 whole entry): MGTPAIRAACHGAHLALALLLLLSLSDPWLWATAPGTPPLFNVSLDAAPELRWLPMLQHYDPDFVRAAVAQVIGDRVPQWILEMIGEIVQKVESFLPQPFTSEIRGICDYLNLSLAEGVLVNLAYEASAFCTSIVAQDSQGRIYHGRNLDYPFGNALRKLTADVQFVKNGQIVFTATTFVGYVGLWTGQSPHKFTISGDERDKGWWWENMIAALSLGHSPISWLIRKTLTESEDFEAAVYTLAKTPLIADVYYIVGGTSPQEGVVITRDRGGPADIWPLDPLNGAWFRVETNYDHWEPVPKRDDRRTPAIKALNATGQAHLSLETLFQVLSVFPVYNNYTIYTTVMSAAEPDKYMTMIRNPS
As to the kind of experiment: Inhibition of rat NAAA expressed in HEK293 cells by LC/MS analysis. Type of series: cell-based.

Series [11] has as its target T5, Fatty-acid amide hydrolase 1 (Rattus norvegicus, UniProt P97612).
T5 sequence (P97612 whole entry): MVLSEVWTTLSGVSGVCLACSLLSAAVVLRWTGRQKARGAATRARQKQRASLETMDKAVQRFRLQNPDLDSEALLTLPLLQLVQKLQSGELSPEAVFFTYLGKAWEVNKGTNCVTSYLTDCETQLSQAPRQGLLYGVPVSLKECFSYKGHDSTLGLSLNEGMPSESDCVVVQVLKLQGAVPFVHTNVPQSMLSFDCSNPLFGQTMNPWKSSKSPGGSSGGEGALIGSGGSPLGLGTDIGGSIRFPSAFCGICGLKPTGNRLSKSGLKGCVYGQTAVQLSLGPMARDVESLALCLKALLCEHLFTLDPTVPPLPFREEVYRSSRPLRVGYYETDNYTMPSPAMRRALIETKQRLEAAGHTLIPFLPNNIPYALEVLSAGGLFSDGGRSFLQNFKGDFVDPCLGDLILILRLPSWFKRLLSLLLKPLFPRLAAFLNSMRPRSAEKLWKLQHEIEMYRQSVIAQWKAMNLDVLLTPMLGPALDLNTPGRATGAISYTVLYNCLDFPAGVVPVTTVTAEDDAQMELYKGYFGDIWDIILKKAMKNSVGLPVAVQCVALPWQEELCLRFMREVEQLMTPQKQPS
As to the kind of experiment: Inhibition of rat FAAH expressed in HEK293 cells by LC/MS analysis. It is filed as cell-based.

Series [12] in a line: Half life in pH 7.4 buffer. It is filed as physicochemical.
Series [13] in a line: Half life in pH 5.0 buffer. It is filed as physicochemical.
Series [14] has as its target T2, N-acylethanolamine-hydrolyzing acid amidase. As to the kind of experiment: Inhibition of NAAA (unknown origin).
In series [15] the target is T6, Fatty-acid amide hydrolase 1 (Homo sapiens, UniProt O00519).
T6 sequence (O00519 whole entry): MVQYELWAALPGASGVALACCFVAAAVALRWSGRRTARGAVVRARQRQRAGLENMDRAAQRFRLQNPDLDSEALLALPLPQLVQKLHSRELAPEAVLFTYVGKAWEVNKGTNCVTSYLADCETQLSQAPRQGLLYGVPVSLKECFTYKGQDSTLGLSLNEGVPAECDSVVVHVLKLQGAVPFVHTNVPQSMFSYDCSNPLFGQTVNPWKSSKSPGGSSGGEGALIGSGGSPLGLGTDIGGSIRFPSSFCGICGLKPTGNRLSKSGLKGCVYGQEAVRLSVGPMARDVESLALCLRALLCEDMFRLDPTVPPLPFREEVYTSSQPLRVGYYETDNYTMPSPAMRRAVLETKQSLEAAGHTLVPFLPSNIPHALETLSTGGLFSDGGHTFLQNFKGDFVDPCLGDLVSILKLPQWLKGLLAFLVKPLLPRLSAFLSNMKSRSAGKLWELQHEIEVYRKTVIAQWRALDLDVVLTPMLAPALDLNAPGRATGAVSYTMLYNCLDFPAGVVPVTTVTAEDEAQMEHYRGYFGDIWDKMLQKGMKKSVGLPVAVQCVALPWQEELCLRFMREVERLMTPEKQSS
As to the kind of experiment: Inhibition of FAAH (unknown origin).

A short description of series [16]: Oral bioavailability in monkey at 10 mg/kg. Type of series: ADME, organism-based, Macaca mulatta. The conditions noted are these: rhesus monkey, in vivo.
A short description of series [17]: Half life in monkey at 10 mg/kg, po or 1 mg/kg, iv. It is filed as ADME, organism-based, Macaca mulatta. The following applies: rhesus monkey, in vivo.
Series [18] concerns the target T3, Fatty-acid amide hydrolase 1. Description: Inhibition of mouse brain membrane FAAH preincubated for 10 mins followed by 14C-oleamide substrate addition measured up to 60 mins by TLC analysis.
Series [19] has as its target T5, Fatty-acid amide hydrolase 1. Description: Inhibition of Sprague-Dawley rat brain FAAH using [14C]anandamide as substrate by liquid scintillation counting method.

The half-life is how long it takes for the measured level to halve. A word on the Cmax: it is the highest concentration seen after dosing. For orientation: IC50 means the concentration that inhibits the measured activity by half. As usually defined, the bioavailability is dose-corrected exposure relative to a reference, in per cent.

Chain of Cannabinoid receptor 1 (P21554 whole entry): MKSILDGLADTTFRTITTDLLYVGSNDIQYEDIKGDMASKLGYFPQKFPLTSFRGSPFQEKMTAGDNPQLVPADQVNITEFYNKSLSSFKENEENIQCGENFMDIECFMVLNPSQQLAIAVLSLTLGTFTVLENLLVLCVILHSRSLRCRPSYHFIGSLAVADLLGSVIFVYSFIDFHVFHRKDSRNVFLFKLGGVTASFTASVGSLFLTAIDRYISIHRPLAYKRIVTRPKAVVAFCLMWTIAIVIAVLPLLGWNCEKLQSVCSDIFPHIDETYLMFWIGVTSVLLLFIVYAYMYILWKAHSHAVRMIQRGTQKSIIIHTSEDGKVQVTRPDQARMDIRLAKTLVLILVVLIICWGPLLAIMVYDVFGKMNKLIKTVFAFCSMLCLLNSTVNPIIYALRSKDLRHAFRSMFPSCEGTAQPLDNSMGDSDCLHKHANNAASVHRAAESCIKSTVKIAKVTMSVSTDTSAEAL

Consider `O=C(N[C@H]1CNC1=O)OCCCCC1CCCCC1`, for which the figures for the t1/2 in series [1] and in series [4] were 0.683 h and 0.2 h, respectively. The values for the half-life in [2], in series [5] and in series [6] were less than 5 min, less than 5 min and 0.25 h, respectively. Also, the peak concentration (Cmax) in series [3] is 1610 ng/mL.
On to `CCCCCCCCCCCCCCCN=C=S`, for which the concentration for half-maximal inhibition (IC50) against Cannabinoid receptor 1 and on Monoglyceride lipase was more than 10 µM throughout.
`CC(=O)Oc1cccc2c1C(=O)c1c(OC(C)=O)cc(C(=O)O)cc1C2=O` [DIACEREIN]: the IC50 in series [7] and in [8] was 0.7 to 7.2 µM each time.
In turn, `C=C(OC(=O)N1CCCCC1)c1ccc(-c2ccccc2)cc1` yielded an IC50 in series [9] of 0.009 µM.
As to `O=C(CCc1ccc(-c2ccccc2)cc1)N1CCCC1`, the IC50 in series [10] is 2.12 µM; in series [11], more than 100 µM.
In the case of `O=C(CCCCCc1ccccc1)N1CCOC1=O`, the half-life is more than 24 h in [12], 3.33 h in series [4] and more than 24 h in [13].
For `S=C=NCCCCCCCCCCc1ccccc1`, the IC50 was 0.03 µM in [14] and more than 100 µM in series [15].
Consider `COc1cc(NC(=O)C(=O)c2c(C)n(Cc3ccc(Cl)cc3)c3ccc(C)cc23)ccn1`, for which the bioavailability in series [16] is 14 to 21%. Also, the IC50 is more than 1 µM on Cannabinoid receptor 1 and 0.01 µM in series [15]. In addition, the half-life in series [17] was 17 to 20 h.
The compound `CN(C)C(=O)n1nnnc1Cc1ccc(-c2ccccc2)cc1` showed a half-inhibitory concentration (IC50) in series [18] of 0.0124 µM.
Compound `CCCCCCCCCCCCCCCCS(=O)(=O)F` [HEXADECANESULFONYL FLUORIDE] had a 50% inhibitory concentration (IC50) in series [19] of 0.013 µM.
